What all share (format): cell-based, mouse
For one assay, the system named is CD4+ T cells. In words: TLR ligation at the time of T cell stimulation: proliferation, IL-2 production and signaling. How it is done:
The present experiments were designed to assess the effects of TLR ligation at the time of T cell stimulation, and analysis of signaling pathways which mediate them.
Similar results were observed when anti-CD28 was used in combination with anti-CD3 (FIGS. 7B-7D). IL-2 production from treat T cells were also measured (FIG. 8). These effects were additive to those of anti-CD28 stimulation.
This led to the examination of other signaling pathways downstream of TLR9. For example, experiments were designed to assess the role of phosphatidyl inositol 3 kinase (PI3K) in TLR9 activation because of the ability of TLR ligation to synergize with TCR stimulation for IL-2 production and proliferation was reminiscent of CD28 functions. PI3K is a lipid kinase which catalyzes the phosphorylation of phosphatidyl inositol bis 4, 5, phosphate (PIP2) into phosphatidyl inositol tris 3, 4, 5, phosphate (PIP3). PIP3 is an important cell signaling molecule, activating protein kinase B/Akt, and other downstream pathways. In T cells, PI3K activation is a major known downstream signaling pathway of the T cell costimulatory receptor CD28.

The test system of assay [1] is activated DO11.10 CD4+ T cells. Put plainly: Proliferation by CFSE dye dilution. To be noted: 72 hours following activation; relative to untreated activated controls (FIG. 3D). How it is done: Following activation, purified CD4^+ T cells were washed twice in PBS and replated in culture medium at 10^6/ml. Cultures were left untreated or treated with either TLR ligands and/or inhibitors for indicated times and concentrations. Following incubation, CD4^+ T cells were washed twice in PBS/2% FBS and stained with CD4-allophycocyanin monoclonal antibody and 7-aminoactinomycin D (7-AAD; BD PharMingen) or annexin (BD PharMingen) and survival was assessed by exclusion of either of these two stains. […] Live CD4^+ T cell counts were calculated by taking the ratio of the number of CD4^+CD45.1^−7-ADD^− events collected to the number CD45.1^+ events collected and multiplying by 50,000. Proliferation was measured by CFSE dye dilution as previously described (Wells et al., 1997 J. Clin. Invest. 100:3173).
Without wishing to be bound by any particular theory, the increases in live cells numbers observed could be explained by TLR ligand-mediated increases in CD4^+ T cell proliferation. […] To address this issue, CFSE-labeled DO11.10 CD4^+ T cells were first activated by pOVA-pulsed APCs for 16 hours, purified by magnetic beads, and then treated with TLR ligands and assessed for proliferation 72 hours following activation (FIG. 3D).

In another assay the test system is activated CD4+ T cells. Put plainly: Analysis of antiapoptotic molecules (Bcl-2 FACS; Bcl-xL, Bcl-3 Western blot). How it is done: For Bcl-2 evaluation, CD4^+ T cells were permeabilized with 0.1% saponin/0.2% FBS/PBS and stained with anti-Bcl-2 PE monoclonal antibody (3F-11; BD PharMingen) or an isotype hamster IgG-PE control (A19-3; BD PharMingen) and staining was analyzed by FACS. Bcl-xL, Bcl-3, and β-actin were analyzed by Western blotting using rabbit anti-mouse Abs specific for BCl-xL (BD Transduction Laboratories, Lexington, Ky.), Bcl-3 (Santa Cruz Biotechnology, Santa Cruz, Calif.), and β-actin (Accurate Labs, Westbury, N.Y.).
Members of the Bcl family are mediators of activated CD4^+ T cell survival. […] Therefore, levels of each of these molecules were measured following TLR ligand treatment of activated CD4^+ T cells (FIGS. 4C and 4D). Bcl-2 protein levels were not changed by TLR ligand treatment relative to untreated activated CD4^+ T cell controls. Additionally, Bcl-3 protein levels were also left unaffected despite the fact that all of the TLR ligands used in the experiment are also used as adjuvants (Mitchell et al., 2001, Nat. Immunol. 2:397). […] Thus, directly mediated activated CD4^+ T cell survival is associated with specific BCl-xL up-regulation.
A general note: A western blot detects proteins with antibodies after separation by electrophoresis.

This is an account of results in patent US20090220528A1, “Stimulation of Toll-Like Receptors on T Cells” (THE TRUSTEES OF THE UNIVERISTY OF PENNSYLVANIA CNETER FOR …, priority 2005, published 2009).

With poly(I:C), the “IL-2 protein production with T cell stimulation” value in the assay with CD4+ T cells (FIG. 8) is given as “able to synergize”. The “TRAF6 requirement of proliferative effects” value in the assay with CD4+ T cells (FIG. 9) is reported as “did not require TRAF6”. For the same substance, in the assay with CD4+ T cells (with sub-mitogenic anti-CD3, with or without anti-CD28 (FIG. 7)), the “T cell proliferation with T cell stimulation” value was “able to synergize”. The “proliferation of activated CD4+ T cells” value in assay [1] is on record as “did not enhance proliferation”. In addition, the Bcl-xL protein result in the assay with activated CD4+ T cells (over LPS-treated and untreated activated CD4+ T cells) was “significant increases”. Also, in the assay on activated CD4+ T cells (relative to untreated activated CD4+ T cell controls), the Bcl-3 protein levels result was “not observed”.
